Measured values from the supplement of paper PMC7224384.

Columns and labels:
MDA-MB-453 [1] = test: drug sensitivity score (DSS), single agent (DSS (weighted AUC score)); higher = more sensitive (stronger viability decrease); extreme values may be limits of the assay; conditions: BLU9931 0 nM; 72 h
In short: (§1)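 Compounds from the FIMM Oncology set were predispensed in singlicate at five 10-fold dilutions (10,000-fold range) on 384-well plates. Each well then received 2000 MDA-MB-453 cells in medium with or without an FGFR4 inhibitor (100 nM final) and was kept at 37 °C, 5% CO2. Cellular ATP was read with CellTiterGlo 2.0 after 72 h and normalised per plate to percent viability from control wells. The drug sensitivity score is a weighted area under a four-parameter logistic fit.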

MDA-MB-453 [2] = test: drug sensitivity score (DSS), in combination with BLU9931 (DSS (weighted AUC score)); higher = more sensitive (stronger viability decrease); extreme values may be limits of the assay; conditions: BLU9931 100 nM; 72 h
In short: as §1

Row | SMILES | drug sensitivity score (MDA-MB-453 [1]) | drug sensitivity score (MDA-MB-453 [2])
1 | CNC(=O)c1cccc(-c2ccc3c(N4CCOC[C@@H]4C)nc(N4CCOC[C@@H]4C)nc3n2)c1 [Vistusertib] | 16.3 | 16.9
2 | CC(C)NC(=O)COc1cccc(-c2nc(Nc3ccc4[nH]ncc4c3)c3ccccc3n2)c1 [KD025] | 5.6 | 6
3 | Cc1cc(C(C)Nc2ccccc2)c2nc(N3CCOCC3)cc(=O)n2c1 (stereo unspecified) [TGX-221] | 2.6 | 3.2
4 | COc1cc2c(cc1-c1c(C)noc1C)ncc1[nH]c(=O)n([C@H](C)c3ccccn3)c12 [I-BET151] | 11.5 | 11.4
5 | CC(C)Cn1cnc2c(N)nc3ccccc3c21 [Imiquimod] | 0 | 0
6 | Clc1ccc(C(c2ccccc2Cl)C(Cl)Cl)cc1 (stereo unspecified) [Mitotane] | 0.6 | 0
7 | CNC(=O)c1ccc(-c2cnc3ncc(Cc4ccc5ncccc5c4)n3n2)cc1F [Capmatinib] | 0 | 0
8 | Cc1nc(-c2cn3c(n2)-c2ccc(-c4cnn(C(C)(C)C(N)=O)c4)cc2OCC3)n(C(C)C)n1 [Taselisib] | 17.9 | 19.3
9 | N#Cc1ccnc(N2C(=O)CC[C@H]2C(=O)N(c2cncc(F)c2)[C@H](C(=O)NC2CC(F)(F)C2)c2ccccc2Cl)c1 [Ivosidenib] | 0 | 0
10 | CNC(=O)c1cccc2cc(Oc3ccnc4cc(OCC5(N)CC5)c(OC)cc34)ccc12 [Lucitanib] | 2.9 | 0.9
11 | Nc1cc(COc2c(Cl)cc(C[C@H](N)C(=O)O)cc2Cl)c2oc(-c3ccccc3)nc2c1 [JPH203] | 3 | 1.4
12 | FC(F)(F)c1ccc(/C=C/c2nc(COc3ccc(CCCCn4ccnn4)cc3)co2)cc1 [Mubritinib] | 7.8 | 4
13 | C=C1C[C@@H]2[C@H](CC[C@]3(C)C(=O)CC[C@@H]23)[C@@]2(C)C=CC(=O)C=C12 [Exemestane] | 4.8 | 0
14 | Cc1cc(OCc2nnc(SC3CCCC3)n2-c2cccnc2)ccc1-c1ccc(S(C)(=O)=O)cc1 [NMS-873] | 11.4 | 9.1
15 | CC[C@H](CO)Nc1nc(NCc2ccccc2)c2ncn(C(C)C)c2n1 [Seliciclib] | 0 | 0.2
16 | Cn1nccc1Nc1nccc(-c2ccn([C@H](CO)c3ccc(Cl)c(F)c3)c(=O)c2)n1 [Ravoxertinib] | 6.9 | 5.6
17 | CN1C(=O)N[C@H](Cc2c[nH]c3c(Cl)cccc23)C1=O [Necrostatin 2] | 0 | 0
18 | O=C(Nc1cc(Oc2cc(F)c(NC(=O)C3(C(=O)Nc4ccc(F)cc4)CC3)cc2F)ccn1)C1CC1 [Altiratinib] | 7.1 | 3.5
19 | NC(=O)Nc1cc(-c2cccc(F)c2)sc1C(=O)N[C@H]1CCCNC1 [AZD7762] | 5 | 4
20 | CC#CC(=O)N1CCC[C@H]1c1nc(-c2ccc(C(=O)Nc3ccccn3)cc2)c2c(N)nccn12 [Acalabrutinib] | 4.2 | 2.4
21 | CC[C@]12C=CCN3CC[C@@]4(c5cc([C@@]6(C(=O)OC)C[C@@H]7C[C@@H](C(C)(F)F)CN(Cc8c6[nH]c6ccccc86)C7)c(OC)cc5N(C)[C@H]4[C@@](O)(C(=O)OC)[C@@H]1OC(C)=O)[C@@H]32 [Vinflunine] | 2.6 | 1.3
22 | CNC(=O)CN1CCC(Oc2cc3c(Nc4cccc(Cl)c4F)ncnc3cc2OC)CC1 [Sapitinib] | 2.2 | 4.8

Row | SMILES | drug sensitivity score (MDA-MB-453 [1]) | drug sensitivity score (MDA-MB-453 [2])
23 | O=C(Nc1cccnc1)N1CCC(Cc2cccc(Oc3ccc(C(F)(F)F)cn3)c2)CC1 [PF-3845] | 1.8 | 2.2
24 | CC(C)n1nc(-c2ccc3oc(N)nc3c2)c2c(N)ncnc21 [Sapanisertib] | 17.1 | 17.9
25 | O=C(NOCCO)c1ccc2cncn2c1Nc1ccc(I)cc1F [GDC-0623] | 0.4 | 0.5
26 | CN[C@@H](C)C(=O)N[C@H]1CN(C(=O)CC(C)C)CC[C@H]2CC[C@@H](C(=O)NC(c3ccccc3)c3ccccc3)N2C1=O [AT-406] | 5.1 | 5.1
27 | COc1ccc(COc2cc3oc(=O)c4cc(C(C)O)ccc4c3cc2OC)cc1 (stereo unspecified) [Palomid-529] | 2 | 0
28 | C[C@@H]1CCN(C(=O)CC#N)C[C@@H]1N(C)c1ncnc2[nH]ccc12 [Tofacitinib] | 0 | 0
29 | CC[C@]1(O)C[C@@H]2CN(CCc3c([nH]c4ccccc34)[C@@](C(=O)OC)(c3cc4c(cc3OC)N(C)[C@H]3[C@@](O)(C(=O)OC)[C@H](OC(C)=O)[C@]5(CC)C=CCN6CC[C@]43[C@@H]65)C2)C1 [Vinblastine] | 10 | 8.4
30 | CNc1ncc2cc(-c3cc(NC(=O)NCCC(C)(C)C)c(F)cc3C)c(C)nc2n1 | 6.3 | 3.8
31 | O=C(c1ccc(OCCN2CCCCC2)cc1)c1c(-c2ccc(O)cc2)sc2cc(O)ccc12 [Raloxifene] | 2.4 | 2.5
32 | O=C(O)CNC(=O)c1c(O)c2ccccc2n(Cc2ccccc2)c1=O [IOX-2] | 0 | 0
33 | CCCCCCCCCCCCCCCCCCOP(=O)([O-])OC1CC[N+](C)(C)CC1 [Perifosine] | 0 | 0
34 | COc1cc2nccc(Oc3ccc(NC(=O)Nc4cc(C)on4)c(Cl)c3)c2cc1OC [Tivozanib] | 2.8 | 1.4
35 | Cc1ccc(-c2cc(C(F)(F)F)nn2-c2ccc(S(N)(=O)=O)cc2)cc1 [Celecoxib] | 0.4 | 0
36 | COc1cc2ncnc(Nc3ccc(F)c(Cl)c3)c2cc1OCCCN1CCOCC1 [Gefitinib] | 6.9 | 8
37 | C[C@H](Nc1ncnc2[nH]cnc12)c1cc2ccc(F)cc2nc1-c1ccccn1 [AMG319] | 1.1 | 0.3
38 | O=C(Nc1ccc2[nH]nc(-c3ccncc3)c2c1)[C@@H]1CCN(CC(=O)N2CCN(c3ccc(-c4ncccn4)cc3)CC2)C1 | 3.4 | 0
39 | Cc1ccc(Nc2nccc(N(C)c3ccc4c(C)n(C)nc4c3)n2)cc1S(N)(=O)=O [Pazopanib] | 2.3 | 0
40 | C/C=C1\NC(=O)[C@H]2CSSCC/C=C/[C@H](CC(=O)N[C@H](C(C)C)C(=O)N2)OC(=O)[C@H](C(C)C)NC1=O [Romidepsin] | 32 | 33.3
41 | C[C@@H]1C=C2C(=O)O[C@@H]3CC[C@H](C1)[C@]23O [Galiellalactone] | 7.4 | 7.7
42 | COc1ccc(S(=O)(=O)Nc2cccnc2Nc2ccc(O)cc2)cc1 [ABT-751] | 7.4 | 7.9
43 | CC(=O)O[C@]1(C(C)=O)CC[C@H]2[C@@H]3C=C(C)C4=CC(=O)CC[C@]4(C)[C@H]3CC[C@@]21C [Megestrol acetate] | 2.2 | 0
